Test results: patent publication US12492208B2, “Crystal of pyrimidine compound” (TAIHO PHARMACEUTICAL CO., LTD., priority 2020, dated 2025)

Columns and labels:
NCI-N87 cells = test: Growth inhibitory activity against HER2 expressing cell line (NCI-N87); assay type: cell-based; conditions: Homo sapiens, NCI-N87, 72 h; 3 days, CellTiter-Glo 2.0
Procedure: NCI-N87 cells as a HER2 overexpressing human stomach cancer cell line (American Type Culture Collection, Cat No. ATCC (registered trademark) CRL-5822) were suspended in an RPMI1640 medium (Wako Pure Chemical Industries, Ltd.) supplemented with 10% fetal bovine serum. Subsequently, the cell suspension was seeded in each well of a 96-well flat-bottom microplate, and was then cultured in a 5% carbon dioxide gas-containing culture vessel at 37° C. for 1 day. Thereafter, the compound (I) obtained according to the method in Synthesis Example 1 was dissolved in DMSO, and the compound was diluted to 1000 times the final concentration in DMSO. The compound (I) in the DMSO solution was diluted with the medium used in the suspension of the cells, and the obtained solution was then added to each well of the culture plate, so that the final concentration of DMSO became 0.1%. Regarding a control well, DMSO was diluted with the medium used in the suspension of the cells, and the obtained solution was then added to each well of the culture plate, so that the final concentration of DMSO became 0.1%. […] After completion of the culture for 3 days in the presence of the compound, the cells were counted using CellTiter-Glo 2.0 (manufactured by Promega) in accordance with the protocols recommended by Promega. The growth inhibition percentage was calculated according to the following equation. […]

[1] = system: Luciferase gene-introduced HER2 expressing cell line (NCI-N87-Luc); test: Antitumor effect confirmation test (in vivo) on direct brain transplantation models; parameters: species or system nude mouse (BALB/cAJcl-nu/nu); conditions: 25 mg/kg/day oral, 21 days
Procedure: In order to confirm the antitumor effects of a test compound on direct brain transplantation models, NCI-N87-Luc, which was obtained by introducing a luciferase gene into NCI-N87 that was a human stomach cancer tumor cell line purchased from American Type Culture Collection, was used. The NCI-N87-Luc was added into a 10% fetal bovine serum (FBS)-containing RPMI-1640 medium (supplemented with 4.5 g/L glucose, 10 mM HEPES, and 1 mM sodium pyruvate) (Wako Pure Chemical Industries, Ltd.), and this cell line was then cultured in a 5% CO2 incubator at 37° C.
The NCI-N87-Luc cells were re-suspended in PBS in a concentration of 6.25×10^7 cells/mL. […]
As a reference of the amount of brain tumor, approximately 3 weeks after the transplantation, Total Flux (Photon/sec) was measured in all of the survival cases, using IVIS (PerkinElmer, Inc., model: Lumina II). […]
The value obtained by logarithmic transformation (Log 10) of the total flux on Day 22 in each group was analyzed by a significance test. […] A body weight change percentage (Body weight change; BWCn) from the body weight on the n^th day (BWn) was calculated according to the following equation: BWCn (%)=[(body weight on n^th day)−(body weight on grouping day)]/[(body weight on grouping day)]×100.

For `C=CC(=O)N1C[C@H](n2c(C#CC3CC3)c(C(=O)N[C@H](C)c3ccccc3)c3c(N)ncnc32)C[C@@H]1C` [compound (I), 7-((3R,5S)-1-acryloyl-5-methylpyrrolidin-3-yl)-4-amino-6-(cyclopropylethynyl)-N—((R)-1-phenylethyl)-7H-pyrrolo[2,3-d]pyrimidine-5-carboxamide], the IC50 (NCI-N87 cells) was 9.9 nM, the “body weight reduction of −20% or more” value ([1]; all mice) was “not observed” and the “Log 10 of the total flux on Day 22 versus control group” value ([1]; once a day, significance level (both sides) 5%) was “statistically significantly lower”.
